In patent US20260265329A1, “POLYPEPTIDE AND DERIVATIVE THEREOF, COMPOSITION, AND USE THEREOF” (HANGZHOU SCIWIND BIOSCIENCES CO., LTD., priority 2023, published 2026):
Starred links: 1 amine or outer side, 2 acyl side, 3 side chain; linkers in the order of their positions; H or OH if unused. Non-standard residues stand in square brackets, D forms with d. Residues, ends and D or L forms follow the SMILES beside them. *: point of attachment. C20 diacid = O=C(O)CCCCCCCCCCCCCCCCCCC(=O)*; C16 diacid = O=C(O)CCCCCCCCCCCCCCC(=O)*; γGlu = O=C(O)[C@H](CCC(=O)[*:2])N[*:1]; Hyp = O=C(O)[C@@H]1C[C@@H](O)CN1; Trx = NC[C@H]1CC[C@H](C(=O)O)CC1; AEEA = NCCOCCOCC(=O)O; Inp = O=C(O)C1CCNCC1

Target: T1, human amylin receptors (Homo sapiens, UniProt O60896+P30988)
T1 construct: host or cells: CHO-K1/Ga15/AMY3 cells, further stably transfected with a CRE-luciferase plasmid
T1 sequence (P30988 25-474): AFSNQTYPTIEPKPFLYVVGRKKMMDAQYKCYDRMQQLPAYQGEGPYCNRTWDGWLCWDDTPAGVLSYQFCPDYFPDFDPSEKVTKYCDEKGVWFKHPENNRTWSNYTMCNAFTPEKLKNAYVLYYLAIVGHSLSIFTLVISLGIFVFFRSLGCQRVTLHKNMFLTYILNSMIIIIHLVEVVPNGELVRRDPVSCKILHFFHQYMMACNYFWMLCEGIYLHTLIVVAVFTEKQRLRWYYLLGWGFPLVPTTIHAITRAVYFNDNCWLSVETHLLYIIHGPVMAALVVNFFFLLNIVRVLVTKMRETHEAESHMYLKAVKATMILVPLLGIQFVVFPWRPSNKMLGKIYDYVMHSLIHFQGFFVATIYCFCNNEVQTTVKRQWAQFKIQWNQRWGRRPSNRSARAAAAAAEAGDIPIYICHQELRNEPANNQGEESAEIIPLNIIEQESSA
T1 sequence (O60896 24-148 partner): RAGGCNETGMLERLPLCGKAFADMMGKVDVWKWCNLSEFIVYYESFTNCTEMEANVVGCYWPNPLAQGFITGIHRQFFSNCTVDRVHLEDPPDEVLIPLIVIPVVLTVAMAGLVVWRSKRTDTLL
Test: Luciferase assay in stably transfected amylin receptor/CRE-luc CHO cell line
Type: cell-based
Settings: for Relative activity: EC50 ratio of Cagrilintide to the compound, Cagrilintide 100%; for EC50: amylin receptor/CRE-luc CHO cells, 24 hours incubation, luminescence
From the text: The objective of this assay is to test the potency of derivatives of polypeptides of the present application on human amylin receptors in vitro using a luciferase assay. Using the standard protocol, CHO-K1/Ga15/AMY3 cells (purchased from GenScript, with the calcitonin receptor and the receptor activity modifying peptide (RAMP) constructed already) were transfected with a plasmid containing a luciferase expression cassette driven by multiple copies of cAMP response elements (CREs). The cells were cultured in an F12 medium containing 200 μg/mL Zeocin, 2 μg/mL puromycin, 100 μg/mL hygromycin, and 400 μg/mL G418 to afford a stably transfected amylin receptor/CRE-luc cell line. The lyophilized powder from Example 1 was dissolved in 20 mM phosphate buffer solution with a pH of 7.0, and diluted in a growth medium (F12 culture medium containing 10% FBS) to give a derivative sample with an initial concentration of 10 nM, which was then subjected to a 5-fold serial dilution in the growth medium to obtain seven samples with concentrations between […]. In each well of a white 96-well plate, 50 μL of the tested sample solution was added with a corresponding concentration. The stably transfected amylin receptor/CRE-luc CHO cells were resuspended in the growth medium at a certain density, and 50 μL of the cell suspension was added at a density of about 20000 cells per well to the white 96-well plate containing the tested sample solution. After incubation of 24 hours at 37° C. and 5% CO2, 100 μL of a Luciferase substrate was added to each well, incubated for 3 minutes, and finally was tested for luminescence on SpectraMax L (Molecular Devices) with the software SoftMax Pro 7.0.3 GxP.

SMILES | Relative activity [%] | EC50 [pM]
CC[C@H](C)[C@H](NC(=O)[C@H](CC(=O)O)NC(=O)[C@H](CCCNC(=N)N)NC(=O)[C@H](CC(=O)O)NC(=O)[C@H](CCCNC(=N)N)NC(=O)[C@H](CC(=O)O)NC(=O)[C@@H](NC(=O)[C@H](Cc1ccccc1)NC(=O)[C@H](Cc1c[nH]cn1)NC(=O)[C@H](CCCNC(=N)N)NC(=O)[C@H](CC(C)C)NC(=O)[C@H](Cc1ccccc1)NC(=O)[C@H](CC(=O)O)NC(=O)[C@H](C)NC(=O)[C@H](CC(C)C)NC(=O)[C@H](CCCNC(=N)N)NC(=O)[C@H](CCC(N)=O)NC(=O)[C@@H](NC(=O)[C@H](C)NC(=O)[C@H](C)NC(=O)[C@@H](NC(=O)[C@H](CO)NC(=O)[C@H](CC(C)C)NC(=O)[C@H](CCC(N)=O)NC(=O)[C@H](CO)NC(=O)[C@H](C)NC(=O)CC[C@H](NC(=O)CCCCCCCCCCCCCCC(=O)O)C(=O)O)[C@@H](C)O)[C@@H](C)O)[C@@H](C)O)C(=O)N[C@@H](CC(C)C)C(=O)N1CCC[C@H]1C(=O)N1CCC[C@H]1C(=O)N[C@H](C(=O)N[C@@H](CC(N)=O)C(=O)N[C@H](C(=O)NCC(=O)N[C@@H](CO)C(=O)N[C@@H](CC(N)=O)C(=O)N[C@H](C(=O)N1CCC[C@H]1C(N)=O)[C@@H](C)O)C(C)C)[C@@H](C)O [M23] ({C16 diacid-γGlu}-ASQLSTAATQRLADFLRHFTDRDRDILPPTNVGSNTP-NH2) | 182 | 17
CC[C@H](C)[C@H](NC(=O)[C@@H]1CCCN1C(=O)[C@H](CCCCN)NC(=O)[C@H](CC(C)C)NC(=O)[C@H](CC(N)=O)NC(=O)[C@H](CC(N)=O)NC(=O)[C@H](CO)NC(=O)[C@H](CO)NC(=O)[C@H](Cc1c[nH]cn1)NC(=O)[C@H](CCCNC(=N)N)NC(=O)[C@H](CC(C)C)NC(=O)[C@H](Cc1ccccc1)NC(=O)[C@H](CC(=O)O)NC(=O)[C@H](C)NC(=O)[C@H](CC(C)C)NC(=O)[C@H](CCCNC(=N)N)NC(=O)[C@H](CCC(N)=O)NC(=O)[C@@H](NC(=O)[C@H](C)NC(=O)[C@H](C)NC(=O)[C@@H](NC(=O)[C@H](CO)NC(=O)[C@H](CC(C)C)NC(=O)[C@H](CCC(N)=O)NC(=O)[C@H](CO)NC(=O)[C@H](C)NC(=O)COCCOCCNC(=O)COCCOCCNC(=O)[C@H](CCC(=O)O)NC(=O)CCCCCCCCCCCCCCCCCCC(=O)O)[C@@H](C)O)[C@@H](C)O)C(=O)N[C@@H](CC(C)C)C(=O)N1CCC[C@H]1C(=O)N1CCC[C@H]1C(=O)N[C@H](C(=O)N[C@@H](CC(N)=O)C(=O)N[C@H](C(=O)NCC(=O)N[C@@H](CO)C(=O)N[C@@H](CC(N)=O)C(=O)N[C@H](C(=O)N1C[C@H](O)C[C@H]1C(N)=O)[C@@H](C)O)C(C)C)[C@@H](C)O [M32] ({C20 diacid}-E[AEEA][AEEA]ASQLSTAATQRLADFLRHSSNNLKPILPPTNVGSNT[Hyp]-NH2) | 44 | 115
CC[C@H](C)[C@H](NC(=O)[C@H](CC(=O)O)NC(=O)[C@H](CCCNC(=N)N)NC(=O)[C@H](CC(=O)O)NC(=O)[C@H](CCCNC(=N)N)NC(=O)[C@H](CC(=O)O)NC(=O)[C@@H](NC(=O)[C@H](Cc1ccccc1)NC(=O)[C@H](Cc1c[nH]cn1)NC(=O)[C@H](CCCNC(=N)N)NC(=O)[C@H](CC(C)C)NC(=O)[C@H](Cc1ccccc1)NC(=O)[C@H](CC(=O)O)NC(=O)[C@H](C)NC(=O)[C@H](CC(C)C)NC(=O)[C@H](CCCNC(=N)N)NC(=O)[C@H](CCC(N)=O)NC(=O)[C@@H](NC(=O)[C@H](C)NC(=O)[C@H](C)NC(=O)[C@@H](NC(=O)[C@H](CO)NC(=O)[C@H](CC(C)C)NC(=O)[C@H](CCC(N)=O)NC(=O)[C@H](CO)NC(=O)[C@H](C)NC(=O)COCCOCCNC(=O)COCCOCCNC(=O)COCCOCCNC(=O)COCCOCCNC(=O)CC[C@H](NC(=O)CCCCCCCCCCCCCCCCCCC(=O)O)C(=O)O)[C@@H](C)O)[C@@H](C)O)[C@@H](C)O)C(=O)N[C@@H](CC(C)C)C(=O)N1CCC[C@H]1C(=O)N1CCC[C@H]1C(=O)N[C@H](C(=O)N[C@@H](CC(N)=O)C(=O)N[C@H](C(=O)NCC(=O)N[C@@H](CO)C(=O)N[C@@H](CC(N)=O)C(=O)N[C@H](C(=O)N1CCC[C@H]1C(N)=O)[C@@H](C)O)C(C)C)[C@@H](C)O [M24] ({C20 diacid-γGlu-AEEA-AEEA-AEEA-AEEA}-ASQLSTAATQRLADFLRHFTDRDRDILPPTNVGSNTP-NH2) | 47 | 66
CC[C@H](C)[C@H](NC(=O)[C@H](CC(=O)O)NC(=O)[C@H](CCCNC(=N)N)NC(=O)[C@H](CC(=O)O)NC(=O)[C@H](CCCNC(=N)N)NC(=O)[C@H](CC(=O)O)NC(=O)[C@@H](NC(=O)[C@H](Cc1ccccc1)NC(=O)[C@H](Cc1c[nH]cn1)NC(=O)[C@H](CCCNC(=N)N)NC(=O)[C@H](CC(C)C)NC(=O)[C@H](Cc1ccccc1)NC(=O)[C@H](CC(=O)O)NC(=O)[C@H](C)NC(=O)[C@H](CC(C)C)NC(=O)[C@H](CCCNC(=N)N)NC(=O)[C@H](CCC(N)=O)NC(=O)[C@@H](NC(=O)[C@H](C)NC(=O)[C@H](C)NC(=O)[C@@H](NC(=O)[C@H](CO)NC(=O)[C@H](CC(C)C)NC(=O)[C@H](CCC(N)=O)NC(=O)[C@H](CO)NC(=O)[C@H](C)NC(=O)[C@H](CCC(=O)O)NC(=O)CCCCCCCCCCCCCCCCCCC(=O)O)[C@@H](C)O)[C@@H](C)O)[C@@H](C)O)C(=O)N[C@@H](CC(C)C)C(=O)N1CCC[C@H]1C(=O)N1CCC[C@H]1C(=O)N[C@H](C(=O)N[C@@H](CC(N)=O)C(=O)N[C@H](C(=O)NCC(=O)N[C@@H](CO)C(=O)N[C@@H](CC(N)=O)C(=O)N[C@H](C(=O)N1CCC[C@H]1C(N)=O)[C@@H](C)O)C(C)C)[C@@H](C)O [M11] ({C20 diacid}-EASQLSTAATQRLADFLRHFTDRDRDILPPTNVGSNTP-NH2) | 110 | 4
CC[C@H](C)[C@H](NC(=O)[C@@H]1CCCN1C(=O)[C@H](CCCCN)NC(=O)[C@H](CC(C)C)NC(=O)[C@H](CC(N)=O)NC(=O)[C@H](CC(N)=O)NC(=O)[C@H](CO)NC(=O)[C@H](CO)NC(=O)[C@H](Cc1c[nH]cn1)NC(=O)[C@H](CCCNC(=N)N)NC(=O)[C@H](CC(C)C)NC(=O)[C@H](Cc1ccccc1)NC(=O)[C@H](CC(=O)O)NC(=O)[C@H](C)NC(=O)[C@H](CC(C)C)NC(=O)[C@H](CCCNC(=N)N)NC(=O)[C@H](CCC(N)=O)NC(=O)[C@@H](NC(=O)[C@H](C)NC(=O)[C@H](C)NC(=O)[C@@H](NC(=O)[C@H](CO)NC(=O)[C@H](CC(C)C)NC(=O)[C@H](CCC(N)=O)NC(=O)[C@H](CO)NC(=O)[C@H](C)NC(=O)COCCOCCNC(=O)COCCOCCNC(=O)C1CCN(C(=O)CCCCCCCCCCCCCCCCCCC(=O)O)CC1)[C@@H](C)O)[C@@H](C)O)C(=O)N[C@@H](CC(C)C)C(=O)N1CCC[C@H]1C(=O)N1CCC[C@H]1C(=O)N[C@H](C(=O)N[C@@H](CC(N)=O)C(=O)N[C@H](C(=O)NCC(=O)N[C@@H](CO)C(=O)N[C@@H](CC(N)=O)C(=O)N[C@H](C(=O)N1C[C@H](O)C[C@H]1C(N)=O)[C@@H](C)O)C(C)C)[C@@H](C)O [M36] ({C20 diacid-Inp-AEEA-AEEA}-ASQLSTAATQRLADFLRHSSNNLKPILPPTNVGSNT[Hyp]-NH2) | – | 59
CC[C@H](C)[C@H](NC(=O)[C@H](CC(=O)O)NC(=O)[C@H](CCCNC(=N)N)NC(=O)[C@H](CC(=O)O)NC(=O)[C@H](CCCNC(=N)N)NC(=O)[C@H](CC(=O)O)NC(=O)[C@@H](NC(=O)[C@H](Cc1ccccc1)NC(=O)[C@H](Cc1c[nH]cn1)NC(=O)[C@H](CCCNC(=N)N)NC(=O)[C@H](CC(C)C)NC(=O)[C@H](Cc1ccccc1)NC(=O)[C@H](CC(=O)O)NC(=O)[C@H](C)NC(=O)[C@H](CC(C)C)NC(=O)[C@H](CCCNC(=N)N)NC(=O)[C@H](CCC(N)=O)NC(=O)[C@@H](NC(=O)[C@H](C)NC(=O)[C@H](C)NC(=O)[C@@H](NC(=O)[C@H](CO)NC(=O)[C@H](CC(C)C)NC(=O)[C@H](CCC(N)=O)NC(=O)[C@H](CO)NC(=O)[C@H](C)NC(=O)[C@H]1CC[C@H](CNC(=O)CCCCCCCCCCCCCCCCCCC(=O)O)CC1)[C@@H](C)O)[C@@H](C)O)[C@@H](C)O)C(=O)N[C@@H](CC(C)C)C(=O)N1CCC[C@H]1C(=O)N1CCC[C@H]1C(=O)N[C@H](C(=O)N[C@@H](CC(N)=O)C(=O)N[C@H](C(=O)NCC(=O)N[C@@H](CO)C(=O)N[C@@H](CC(N)=O)C(=O)N[C@H](C(=O)N1CCC[C@H]1C(N)=O)[C@@H](C)O)C(C)C)[C@@H](C)O [M14] ({C20 diacid-Trx}-ASQLSTAATQRLADFLRHFTDRDRDILPPTNVGSNTP-NH2) | 136 | –
